Test results taken from patent publication US7517998B2, “Non nucleoside reverse transcriptase inhibitors” (priority 2004, dated 2009).

Molecular target: T1, K103NNY181C mutant reverse transcriptase (Human immunodeficiency virus type 1 group M subtype B, UniProt P04585, K690N/Y768C)
T1 construct: mutations that occur in the reverse transcriptase segment of the pol gene
Assay: Reverse transcriptase enzymatic assay (PicoGreen), K103N/Y181C mutant RT
Format: biochemical, HIV-1
Details: IC50 mut (nM), mutant (K103N/Y181C) reverse transcriptase, enzymatic assay of Example 24
Method in brief: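 HIV-1 RT (2.5 nM final) pre-incubated 15 min at room temperature with inhibitor, then reacted 50 min at 37 °C with poly rC 45 nM, dG15 4.5 nM, dGTP 3.6 μM in Tris/HCl pH 7.8, 1% DMSO. Final inhibitor 10 μM to 0.508 nM; EDTA-quenched, PicoGreen fluorescence read at 485/520 nm.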

Compared with `CC(C)(C)c1ccc(-n2nnnc2SCC(=O)Nc2ccc(NC(=O)c3ccccc3O)cc2Cl)c(Cl)c1` [Compound 7014], `CC(C)(C)c1ccc(-n2nnnc2SCC(=O)Nc2ccc(NC(=O)Cc3ccccc3Cl)cc2Cl)c(Cl)c1` [Compound 7035] is 4.2-fold lower in IC50: 415 nM for the first, 100 nM for the second.

First: CC(C)(C)c1ccc(-n2nnnc2SCC(=O)Nc2ccc(NC(=O)Cc3ccccc3C(F)(F)F)cc2Cl)c(Cl)c1 [Compound 7045]
Second: CC(C)(C)c1ccc(-n2nnnc2SCC(=O)Nc2ccc(NC(=O)Cc3ccccc3)cc2Cl)c(Cl)c1 [Compound 7001]
The IC50 of the first is 3.7-fold higher: 432 nM for the first, 116 nM for the second. The second is the more potent here.

Compared with `CC(C)(C)c1ccc(-n2nnnc2SCC(=O)Nc2ccc(NC(=O)Nc3ccc(C(=O)O)cc3)cc2Cl)c(Cl)c1` [Compound 7009], `CC(C)(C)c1ccc(-n2nnnc2SCC(=O)Nc2ccc(NC(=O)Cc3cccc4occc34)cc2Cl)c(Cl)c1` [Compound 7034] is 4.7-fold higher in IC50: 43 nM for the first, 201 nM for the second. The first is the more potent here.

With `CC(C)(C)c1ccc(-n2nnnc2SCC(=O)Nc2ccc(NC(=O)Cc3ccc[n+]([O-])c3)cc2Cl)c(Cl)c1` [Compound 7048] the IC50 was 97 nM.

Same assay, conditions: IC50 mut, K103N/Y181C mutant reverse transcriptase, enzymatic assay of Example 24

Going from `CC(C)(C#Cc1ccc(NC(=O)CSc2nnnn2-c2cc(Cl)ccc2Cl)c(Cl)c1)NC(=O)CN1CCNCC1` [Compound 4194] to `CC(C)(C#Cc1ccc(NC(=O)CSc2nnnn2-c2ccc(C3CC3)cc2Cl)c(Cl)c1)NC(=O)CN1CCNCC1` [Compound 4124], the IC50 falls from 45 nM to 27 nM (1.7-fold).

First: CC(C)(C#Cc1ccc(NC(=O)CSc2nnnn2-c2ccc(C3CC3)cc2Cl)c(Cl)c1F)NC(=O)CN1CCNCC1 [Compound 4198]
Second: CC(C)(C#Cc1ccc(NC(=O)CSc2nnnn2-c2cc(C(F)(F)F)cc(C3CC3)c2Cl)c(Cl)c1F)NC(=O)CN1CCNCC1 [Compound 4236]
The IC50 of the first is 11-fold lower: 22 nM for the first, 250 nM for the second. The first is the more potent here.

Compared with `CC(C)(C#Cc1ccc(NC(=O)CSc2nnnn2-c2ccc(C3CC3)cc2Cl)c(Cl)c1)NC(=O)c1ccncc1` [Compound 4085], `CCOC(=O)NC(C)(C)C#Cc1ccc(NC(=O)CSc2nnnn2-c2ccc(C3CC3)cc2Cl)c(Cl)c1` [Compound 4081] is 1.6-fold higher in IC50: 12 nM for the first, 19.5 nM for the second.

Compared with `CC(C)(C#Cc1ccc(NC(=O)CSc2nnnn2-c2ccc(C3CC3)cc2Cl)c(Cl)c1)NC(=O)OC(C)(C)C` [Compound 4069], `CCNC(=O)NC(C)(C)C#Cc1ccc(NC(=O)CSc2nnnn2-c2ccc(C3CC3)cc2Cl)c(Cl)c1` [Compound 4075] is 5.5-fold lower in IC50: 112 nM for the first, 20.5 nM for the second. The second is the more potent here.

`CN(C)S(=O)(=O)NC(=O)C(C)(C)C#Cc1ccc(NC(=O)CSc2nnnn2-c2ccc(C3CC3)cc2Cl)c(Cl)c1` [Compound 4185] and `CC(C)(C#Cc1ccc(NC(=O)CSc2nnnn2-c2ccc(C3CC3)cc2Cl)c(Cl)c1)C(=O)NCC1CCCO1` (stereo not drawn) [Compound 4146] are within 1.5-fold of each other in IC50: 55.5 nM for the first, 37.5 nM for the second.

Going from `O=C(CSc1nnnn1-c1ccc(C2CC2)cc1Cl)Nc1ccc(C#CC(O)(C(F)(F)F)C(F)(F)F)cc1Cl` [Compound 4249] to `CCC(N)(C#Cc1ccc(NC(=O)CSc2nnnn2-c2ccc(C3CC3)cc2Cl)c(Cl)c1)CC` [Compound 4068], the IC50 falls from 203 nM to 38.5 nM (5.3-fold).

`CC(C)(C#Cc1ccc(NC(=O)CSc2nnnn2-c2ccc(C3CC3)cc2Cl)c(Cl)c1)NCc1cc[n+]([O-])cc1` [Compound 4186] and `CC(C)(C#Cc1ccc(NC(=O)CSc2nnnn2-c2ccc(C3CC3)cc2Cl)c(Cl)c1)NCc1nccs1` [Compound 4129] are within 1.5-fold of each other in IC50: 12 nM for the first, 15.5 nM for the second.

First: CC(NC(=O)COC(C)(C)C#Cc1ccc(NC(=O)CSc2nnnn2-c2ccc(C(C)(C)C)cc2Cl)c(Cl)c1)C(=O)O (stereo not drawn) [Compound 4053]
Second: CC(C)(C)c1ccc(-n2nnnc2SCC(=O)Nc2ccc(C#CC3(O)CCC3)cc2Cl)c(Cl)c1 [Compound 4062]
The IC50 of the first is 2.1-fold lower: 25 nM for the first, 53 nM for the second. The first is the more potent here.

`CC(C)(C#Cc1ccc(NC(=O)CSc2nnnn2-c2cc(Br)ccc2Cl)c(Cl)c1)C(=O)O` [Compound 4218] and `CC(C)(C#Cc1ccc(NC(=O)CSc2nnnn2-c2cc(CC3CC3)ccc2Cl)c(Cl)c1)C(=O)O` [Compound 4213] are within 1.5-fold of each other in IC50: 31.5 nM for the first, 32.5 nM for the second.

`CC(=O)NC(C)(C)C#Cc1ccc(NC(=O)CSc2nnnn2-c2cc(C(F)(F)F)ccc2Cl)c(Cl)c1` [Compound 4141] and `CC(C)(C#Cc1ccc(NC(=O)CSc2nnnn2-c2cc(C(F)(F)F)ccc2Cl)c(Cl)c1)NC(=O)C1CC1` [Compound 4140] are within 1.5-fold of each other in IC50: 40 nM for the first, 51 nM for the second.

First: CC(C)(C#Cc1ccc(NC(=O)CSc2nnnn2-c2ccc(C3CC3)cc2Cl)c(Cl)c1)C(=O)NCCN1CCCC1 [Compound 4143]
Second: CN1CCC[C@H]1C(=O)NC(C)(C)C#Cc1ccc(NC(=O)CSc2nnnn2-c2ccc(C3CC3)cc2Cl)c(Cl)c1 [Compound 4110]
The IC50 of the first is 5.7-fold higher: 65 nM for the first, 11.5 nM for the second. The second is the more potent here.

`CC(C)(C#Cc1ccc(NC(=O)CSc2nnnn2-c2cc(C(F)(F)F)cc(C3CC3)c2Cl)c(Cl)c1F)NC(=O)c1ccc[n+]([O-])c1` [Compound 4230] and `Cc1c(NC(=O)CSc2nnnn2-c2ccc(C3CC3)cc2Cl)ccc(C#CC(C)(C)NC(=O)c2cc[n+]([O-])cc2)c1F` [Compound 4178] are within 1.5-fold of each other in IC50: 30.5 nM for the first, 26 nM for the second.

Going from `CC(C)(C#Cc1ccc(NC(=O)CSc2nnnn2-c2ccc(C3CC3)cc2Cl)c(Cl)c1)NC(=O)CCC(=O)O` [Compound 4238] to `CC(C)(C#Cc1ccc(NC(=O)CSc2nnnn2-c2ccc(C3CC3)cc2Cl)c(Cl)c1)OCCNC1CCC1` [Compound 4118], the IC50 rises from 7.8 nM to 89.5 nM (11-fold). The first is the more potent here.

Compared with `CN(C)CCCC(=O)NC(C)(C)C#Cc1ccc(NC(=O)CSc2nnnn2-c2cc(C(F)(F)F)ccc2Cl)c(Cl)c1F` [Compound 4170], `Cc1cc(C(F)(F)F)cc(-n2nnnc2SCC(=O)Nc2ccc(C#CC(C)(C)C(=O)O)cc2Cl)c1Cl` [Compound 4058] is 1.9-fold higher in IC50: 33.5 nM for the first, 63 nM for the second. The first is the more potent here.

Going from `CC(C)(C#Cc1ccc(NC(=O)CSc2nnnn2-c2ccc(C3CC3)cc2Cl)c(Cl)c1F)OCCOc1ccncc1` [Compound 4165] to `CC(C)(C#Cc1ccc(NC(=O)CSc2nnnn2-c2cc(C(F)(F)F)cc(C3CC3)c2Cl)c(Cl)c1)OCCN1CCNCC1` [Compound 4235], the IC50 rises from 67.5 nM to 718 nM (11-fold). The first is the more potent here.

Going from `CC(C)(C#Cc1ccc(NC(=O)CSc2nnnn2-c2cc(C(F)(F)F)c(C3CC3)cc2Cl)c(Cl)c1)C(=O)O` [Compound 4211] to `CC(C)(C#Cc1ccc(NC(=O)CSc2nnnn2-c2cc(C3CC3)cc(C(F)(F)F)c2Cl)c(Cl)c1)C(=O)O` [Compound 4159], the IC50 falls from 482 nM to 136 nM (3.5-fold). The second is the more potent here.

Same assay, conditions: IC50 mut, mutant reverse transcriptase, enzymatic assay of Example 24

`CC(C)c1ccc(-n2nnnc2SCC(=O)Nc2ccc(-c3ccc(C(C)(C)C(=O)O)cc3)cc2Cl)c(Cl)c1` [Compound 2055] and `CC(C)(C)c1ccc(-n2nnnc2SCC(=O)Nc2ccc(-c3cccc(C(=O)O)c3)cc2Cl)c(Cl)c1` [Compound 3022] are within 1.5-fold of each other in IC50: 56 nM for the first, 50 nM for the second.

First: CC(C)(C)c1ccc(-n2nnnc2SCC(=O)Nc2ccc(C(=O)NC(CO)C(=O)O)cc2Cl)c(Cl)c1 (stereo not drawn) [Compound 6018]
Second: CC(C)(C)c1ccc(-n2nnnc2SCC(=O)Nc2ccc(C(=O)N3CCC(C(=O)O)CC3)cc2Cl)c(Cl)c1 [Compound 6030]
The IC50 of the first is 33-fold lower: 28 nM for the first, 919 nM for the second.

First: O=C(COc1ccc(NC(=O)CSc2nnnn2-c2ccc(C3CC3)cc2Cl)c(Cl)c1)NCCc1ccc[n+]([O-])c1 [Compound 5039]
Second: O=C(COc1ccc(NC(=O)CSc2nnnn2-c2ccc(C3CC3)cc2Cl)c(Cl)c1)NCCc1ccncc1 [Compound 5036]
The IC50 of the first is 1.8-fold higher: 479 nM for the first, 271 nM for the second.

Compared with `CC(C)(C)c1ccc(-n2nnnc2SCC(=O)Nc2ccc(-c3ccc(OCCN4CCCCC4)cc3)cc2Cl)c(Cl)c1` [Compound 2039], `Cc1nnc(SCC(=O)Nc2ccc(-c3ccc(OCCN4CCCCC4)cc3)cc2Cl)n1-c1ccc(C2CC2)cc1Cl` [Compound 1013] is 2.7-fold higher in IC50: 28 nM for the first, 75 nM for the second. The first is the more potent here.

Going from `CC(C)(C)c1ccc(-n2nnnc2SCC(=O)Nc2ccc(OCC(=O)NC3CCOCC3)cc2Cl)c(Cl)c1` [Compound 5030] to `CC(C)(C)c1ccc(-n2nnnc2SCC(=O)Nc2ccc(OCC(=O)N3CCOCC3)cc2Cl)c(Cl)c1` [Compound 5004], the IC50 falls from 116 nM to 41 nM (2.8-fold). The second is the more potent here.

Going from `CC(C)(C#Cc1ccc(NC(=O)CSc2nnc(C3CC3)n2-c2ccc(C3CC3)cc2Cl)c(Cl)c1)C(=O)O` [Compound 1019] to `CC(C)(C#Cc1ccc(NC(=O)CSc2nnc(C(F)(F)F)n2-c2ccc(C3CC3)cc2Cl)c(Cl)c1)C(=O)O` [Compound 1017], the IC50 falls from 525 nM to 72 nM (7.3-fold).

First: CC(C)(C)c1ccc(-n2nnnc2SCC(=O)Nc2ccc(OCC(=O)NCc3ccc(O)c(O)c3)cc2Cl)c(Cl)c1 [Compound 5019]
Second: Cc1cc(-c2ccc(NC(=O)CSc3nnnn3-c3ccc(C(C)(C)C)cc3Cl)c(Cl)c2)ccc1OCC(=O)O [Compound 3010]
The IC50 of the first is 2.4-fold higher: 78 nM for the first, 33 nM for the second.

Compared with `O=C(CSc1nnnn1-c1ccc(C2CC2)cc1Cl)Nc1ccc(C(=O)NCCc2cc[n+]([O-])cc2)cc1Cl` [Compound 6035], `COC(=O)NS(=O)(=O)c1ccc(NC(=O)CSc2nnnn2-c2ccc(C3CC3)cc2Cl)c(Cl)c1` [Compound 3040] is 6.1-fold higher in IC50: 39 nM for the first, 236 nM for the second.

First: Cc1ccc(-n2nnnc2SCC(=O)Nc2ccc(-c3ccc(CC(=O)O)cc3)cc2[N+](=O)[O-])c(Cl)c1 [Compound 2011]
Second: O=C(O)Cc1ccc(-c2ccc(NC(=O)CSc3nnnn3-c3ccc(C4CC4)cc3Cl)c(Br)c2)cc1 [Compound 2048]
The IC50 of the first is 3.8-fold higher: 49 nM for the first, 13 nM for the second. The second is the more potent here.

`CC(C)(C)c1ccc(-n2nnnc2SCC(=O)Nc2ccc(OCC(=O)N3CCC(C(=O)O)CC3)cc2Cl)c(Cl)c1` [Compound 5028] and `O=C(CSc1nnnn1-c1ccc(C2CC2)cc1Cl)Nc1ccc(OCC(=O)N2CCC(C(=O)O)CC2)cc1Cl` [Compound 5032] are within 1.5-fold of each other in IC50: 39 nM for the first, 51.5 nM for the second.

Compared with `Cc1cc(C(F)(F)F)cc(-n2nnnc2SCC(=O)Nc2ccc(-c3ccc(CC(=O)O)cc3)cc2Cl)c1Cl` [Compound 2044], `COC(=O)c1cccc(-c2ccc(NC(=O)CSc3nnnn3-c3ccc(C)cc3Cl)c(Cl)c2)c1` [Compound 3001] is 5-fold higher in IC50: 29 nM for the first, 146 nM for the second.

`CCNC(=O)c1ccc(NC(=O)CSc2nnnn2-c2ccc(C)cc2Cl)c(Cl)c1` [Compound 3008] and `CC(C)(C)c1ccc(-n2nccc2SCC(=O)Nc2ccc(-c3ccc(CC(=O)O)cc3)cc2Cl)c(Cl)c1` [Compound 1006] are within 1.5-fold of each other in IC50: 300 nM for the first, 216 nM for the second.
